“Also recorded” adds a separate entry of the source.

The test system of data set [1] is Panc02 induced tumor. The data set can be described thus: Subcutaneous Panc02 syngeneic pancreatic cancer model, single and combination therapy. Type of data set: in vivo, C57Bl/6 mice. The method, then:
In addition to evaluation of efficacy in CSC-rich PDAC models, the efficacy of NE-DHA-SBT-1214 in combination with antibody targeted to PD-L1 immune checkpoint inhibitor was examined in subcutaneous (subQ) Panc-2 syngeneic pancreatic cancer model developed in […] mice. After transplantation of the Panc-2 cells, the mice were divided into groups for weekly treatment by intravenous administration of vehicle (as control), gemcitabine (at 120 mg/kg), ABRAXANE® (at 120 mg/kg) and NE-DHA-SBT-1214 (at 10 and 25 mg/kg) as either single in combination with either IgG control or anti-PD-L1 antibody (200 μg/dose). The antibodies were administered intraperitoneally. The treatment started two weeks after tumor transplantation when tumor mass became palpable at 50 to 150 mm^3 in volume.
All experiments involving the use of animals were carried out in strict accordance with the recommendations in the guide for the care and use of laboratory animals of the National Institutes of Health, via a research protocol that was approved by Northeastern University Institutional Animal Care and Use Committee (IACUC). […] Tumor development was monitored twice weekly. The tumor size was measured with a caliper on a weekly basis and approximate tumor volumes determined using the formula 0.5ab^2, where b is the smaller of the two perpendicular diameters. […]

Data set [2] deals with PD-L1 surface expression in Panc02 cells. Nature of the data set: PD-L1 surface protein expression by flow cytometry. The format is cell-based, murine. The settings on record: IC50 concentration, 48 hours. The method, then:
(§1) Cells were seeded at 0.5×10^6 cells/well in 6-well plates for overnight at 37 C in a humidified atmosphere containing 5% CO2. […] The percentage maximal response is shown as a function of anti-cancer agents when administered to Panc02 cells. The cell viability was measured by the MTT assay after 96 hours of incubation at 37° C. Data represent mean±standard deviation (n=3). Significant differences are indicated as follows: *p<0.05, and **p<0.01. The expression level of PD-L1 was determined using flow cytometry as follows. Briefly, cells harvested from in vitro cultures were washed twice with 3% BSA/PBS and then incubated with rat anti-PD-L1 or isotype control antibodies (mouse, BioXcell, West Lebanon, N.H., USA) for 30 minutes at 4 C, then washed three times and incubated with anti-rat AlexaFluor 488 conjugated Antibody. The cells were washed once with 3% BSA/PBS and analyzed by flow cytometer on a FACSCalibur flow cytometer and CellQuest™ Pro version 6.0 software (both from Becton-Dickinson and Co.).
Panc02 cells were treated with gemcitabine, Abraxane™, paclitaxel and DHA-SBT-1214 both in solution and nanoemulsion for 48 hours to determine whether they can induce PD-L1 protein expression. PD-L1 expression levels on tumor cells were determined by flow cytometry and is expressed as the A mean fluorescence intensity (ΔMFI; MFI using anti-PD-L1 subtracted from the isotype control). […] PD-L1 expression was analyzed using flow cytometry and is presented as ΔMFI (MFI using anti-PD-L1 subtracted from the isotype control). Data represent the mean±standard deviation of at least 3 independent experiments; *p<0.05, **p<0.01, ***p<0.001. As reported previously, PD-L1 level enhanced in pancreatic tumor tissues compared to in vitro growing cells as shown in FIG. 8.

Data set [3] deals with Panc02 cells. The data set can be described thus: Cell viability (MTT assay) in Panc02 cells. The settings on record: 96 hours of drug exposure. Type of data set: cell-based, murine. The method, then:
The murine pancreatic cancer cell line Panc02, which is syngeneic to C57Bl/6 mice was a kind gift from Professor Michael A. Hollingsworth, UNMC, Omaha, Nebr. Panc02 cells were grown in 75 cm^2 cell culture flasks and maintained in DMEM medium supplemented with 10% fetal bovine serum (FBS), L-glutamine and penicillin (100 U/ml)/streptomycin (100 μg/ml) (both from Gibco Life Technologies, Carlsbad, Calif., USA). Cells were incubated at 37° C. in a humidified atmosphere containing 5% CO2.
To see cytotoxic effect of different drugs and nanoemulsion formulation, 5000 cells were seeded in each well of the 96-well plate for overnight at 37° C. in a humidified atmosphere containing 5% CO2. Various drugs (Paclitaxel, Abraxane, Gemcitabine and solution and nanoemulsion of DHA-SBT-1214) were diluted at concentrations ranging from 0 nM, 0.01 nM, 0.1 nM, 1 nM, 10 nM, 100 nM, 1000 nM to 10000 nM and Panc02 cells treated with these concentrations for 96 hours. After incubation, cells were treated with 3-(4,5-dimethylthiazol-2-yl)-2,5-diphenyltetrazolium bromide ([…]). MU crystals were dissolved with DMSO and plates were read at 570 nm absorbance using a BioTek Synergy HTX Multi-Mode Microplate Reader.
as §1, with “Briefly, cells harvested from in vitro cultures were washed twice with 3% BSA/PBS and then incubated with rat anti-PD-L1 or isotype control antibodies (mouse, BioXcell, West Lebanon, N.H., USA) for 30 minutes at 4 C, then washed three times and incubated with anti-rat AlexaFluor 488 conjugated Antibody.” left out, “Co.). […]” for “Co.).”
(Tetrazolium dyes change colour on reduction, which living cells bring about.)

Data set [4] in a line: Formulation concentration, droplet properties and storage stability.
Text: The droplet size is consistently less than 200 nm in diameter allowing one to filter sterilize the final formulation. The zeta potential of the nanoemulsion is in the range of negative 23 mV to 33 m.
For data set [5], the system named is CSCs purified from three human colon cancer cell lines, DLD-1, HTC-116, and HT-29. The settings on record: cited from earlier work.
Data set [6] concerns patient-derived PPT2 prostate cancer stem cell xenograft. Nature of the data set: Patient-derived prostate cancer stem cell (PPT2) xenograft model. Type of data set: in vivo, mice. The settings on record: patient-derived prostate CSC xenograft.

For the compound `Nc1ccn([C@@H]2O[C@H](CO)[C@@H](O)C2(F)F)c(=O)n1` [gemcitabine], in data set [1] (120 mg/kg weekly ×3), the tumor growth suppression entry is “moderate effect”. Also, the “PD-L1 surface expression (ΔMFI)” value in data set [2] is recorded as “upregulated”. In addition, the IC50 in data set [3] (Mus musculus) is 154 nM.
In the case of `CC/C=C\C/C=C\C/C=C\C/C=C\C/C=C\C/C=C\CCC(=O)O[C@@H](C(=O)O[C@H]1C[C@@]2(O)[C@@H](OC(=O)c3ccccc3)[C@@H]3[C@]4(OC(C)=O)CO[C@@H]4C[C@H](O)[C@@]3(C)C(=O)[C@H](OC(=O)C3CC3)C(=C1C)C2(C)C)[C@H](C=C(C)C)NC(=O)OC(C)(C)C` [DHA-SBT-1214, Docosahexaenoic acid conjugate of SBT-1214], the “increase in drug concentration in omega-3 fatty acid based nanoemulsion by DHA conjugation” value in data set [4] is recorded as 5 fold. Also, the stability result in data set [4] (in Solutol-HS15) is recorded as “less than 24 hours”. This compound also displayed a formulated drug concentration in data set [4] (in Tween 80 or Solutol-HS15) of 6 mg/mL. Besides, the “efficacy compared to abraxane at 120 mg/kg” value in data set [1] (10 mg/kg) is reported as “superior to abraxane treatment”. In addition, the “expression of stem related genes” value in data set [5] is recorded as “down-regulate stem related genes”. Further, the “PD-L1 surface expression (ΔMFI)” value in data set [2] is reported as “upregulated”. Also, the IC50 in data set [3] is 262 nM. Also, in data set [6], the “efficacy (tumor growth, survival)” value was “effective; also recorded: superior to ABRAXANE® and resulted in tumor clearance”.

What is called IC50 is the concentration that inhibits the measured activity by half.

The values are drawn from US11497713B2, “Combination taxoid nanoemulsion with immunotherapy in cancer” (TargaGenix, Inc., priority 2017, dated 2022).
